Measurements reported in paper PMC6950245, “Identification and Characterization of ShSPI, a Kazal-Type Elastase Inhibitor from the Venom of Scolopendra Hainanum” (Toxins, 2019).
Where a SMILES comes first, the peptide text is derived from it. Bridges are numbered along the chain shown (N, C = ends).

Columns and labels:
[1] = target: T1, porcine pancreatic elastase (PPE) (Sus scrofa, UniProt P00772); design: method as in PMID 2049103; conditions: reported; cited from earlier work
T1 construct: purchased Sigma-Aldrich E0127

[2] = target: T2, human neutrophil elastase (HNE) (Homo sapiens, UniProt P08246); assay: Protease inhibition assay, human neutrophil elastase (chromogenic substrate, Dixon method); assay type: biochemical
T2 construct: purchased Sigma-Aldrich E8140
T2 sequence (P08246 30-267): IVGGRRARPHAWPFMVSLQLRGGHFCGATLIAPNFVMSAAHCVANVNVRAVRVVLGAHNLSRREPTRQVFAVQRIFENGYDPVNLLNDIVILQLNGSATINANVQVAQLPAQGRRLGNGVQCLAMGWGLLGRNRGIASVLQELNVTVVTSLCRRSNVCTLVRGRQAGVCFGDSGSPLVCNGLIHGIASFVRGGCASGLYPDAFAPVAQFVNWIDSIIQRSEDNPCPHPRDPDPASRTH
Text: (§1) Human neutrophils elastase (HNE, E8140), porcine pancreatic elastase (PPE, E0127), cathepsin G (CG, C4428), human trypsin (T6424), α-chymotrypsin from human pancreas (C8946), and thrombin from human plasma (T4393) were all purchased from Sigma-Aldrich (USA). Factor Xa (FXa, HFXa 1011) and Factor XIIa (FXIIa, HFXIIa 1212a) were from Enzyme Research Laboratories (South Bend, IN, USA). Kallikrein from human plasma (420307) was from Merck Millipore (Billerica, MA, USA).
Substrate for HNE and PPE (MeOSuc-Ala-Ala-Pro-Val-pNA, 324696) was purchased from Merck Millipore (USA). Substrates for CG (Succinyl-Ala-Ala-Pro-Phe-pNA, 573462), trypsin (Nalpha-Benzoyl-L-arginine 4-nitroanilide hydrochloride, B3133), FXa (CH3OCO-D-CHA-Gly-Arg-pNA-AcOH, F3301), chymotrypsin (N-Succinyl-Gly-Gly-Phe-pNA, S1899), thrombin (β-Ala-Gly-Arg-pNA diacetate, T3068), and kallikrein (Z-Phe-Arg 7-amido-4-methylcoumarin hydrochloride, C9521) were purchased from Sigma-Aldrich (USA).
(§2) As mentioned in our previous study, experiments for protease inhibitory activity were assayed in buffer (0.05 M Tris-HCl, pH 7.8) at 37 °C. […] At the end of the incubation, the reaction was initiated by the addition of the exclusive substrate solution and monitored by recording the absorbance at 405 nm every 30 s for 30 min. Enzyme activity in each well was calculated based on the initial slope of the reaction curve, and percentage of the initial slope of the uninhibited reaction was expressed. The inhibition constant Ki value was determined according to the Dixon method.

[3] = target: T1, porcine pancreatic elastase (PPE); assay: Protease inhibition assay, porcine pancreatic elastase (chromogenic substrate, Dixon method); assay type: biochemical; conditions: 0.05 M Tris-HCl pH 7.8, 37 °C, 10 min pre-incubation, PPE 1 μg/mL, substrate MeOSuc-Ala-Ala-Pro-Val-pNA 30, 60, 90 μg/mL, absorbance 405 nm
Text: as §1
Substrate for HNE and PPE (MeOSuc-Ala-Ala-Pro-Val-pNA, 324696) was purchased from Merck Millipore (USA). […]
as §2

[4] = target: T1, porcine pancreatic elastase (PPE); assay: Surface plasmon resonance, ShSPI immobilized, PPE injected; conditions: SPR Biacore 3000, ShSPI on CM5 chip, PPE injected 180 s at 10 μL/min, HBS-P buffer, Langmuir binding fit; read-out: ka, PPE
Procedure: (§3) Sensor chips CM5 (BR100012), 10 mM acetate buffer (BR100350, pH 4.0), amine coupling kit (BR100050), and HBS-P buffer (BR100826, used as running buffer) were all obtained from GE Healthcare Bio-sciences AB (Uppsala, Sweden). Data were collected and analyzed by BIAcore System (Version 3000, GE Healthcare Life Sciences, Pittsburgh, PA, USA) and BIA evaluation software (Version 3.0, GE Healthcare Life Sciences, Pittsburgh, PA, USA).
(§4) Before testing, ShSPI (100 μg/mL in acetate buffer, pH 4.0) was immobilized to the surface of CM5 chip. Following a standard amine coupling chemistry, running buffer was used to reach equilibration. HNE or PPE (doubling dilution) was injected over the immobilized ShSPI at a flow rate of 10 μL/min, and the association rate (ka, M^−1s^−1) was determined. After 3 min, running buffer was applied to the surface, and the dissociation rate (kd, s^−1) was determined over 15 min for PPE and 30 min for HNE, and another 500 μL of running buffer were injected at a flow rate of 20 μL/min to rebalance the chip. The equilibrium association constant (KA, M^−1) and the equilibrium dissociation constant (KD, M) were determined by ka/kd and kd/ka, respectively.

[5] = target: T2, human neutrophil elastase (HNE); assay: Surface plasmon resonance, ShSPI immobilized, HNE injected; conditions: SPR Biacore 3000, ShSPI on CM5 chip, HNE injected 180 s at 10 μL/min, HBS-P buffer, Langmuir binding fit; read-out: ka, HNE
Procedure: as §3, §4

[6] = Plasma stability, read out by enzyme inhibitory activity; assay type: in vitro ADME; conditions: lyophilized human plasma resuspended in water, 500 nM, 37 °C, 0-48 h, triplicate samples
Procedure: Lyophilized human plasma (400100, Cayman, Ann Arbor, MI, USA) was resuspended in sterile water according to the instruction, then ShSPI was added to each equivalent volume with a final concentration of 500 nM, and samples were co-incubated at 37 °C for two days. Triplicate samples were collected at selected time points (0, 6, 12, 18, 24, 30, 36, 42, and 48 h) and protease activity was tested as described above.

T1 sequence (P00772 27-266): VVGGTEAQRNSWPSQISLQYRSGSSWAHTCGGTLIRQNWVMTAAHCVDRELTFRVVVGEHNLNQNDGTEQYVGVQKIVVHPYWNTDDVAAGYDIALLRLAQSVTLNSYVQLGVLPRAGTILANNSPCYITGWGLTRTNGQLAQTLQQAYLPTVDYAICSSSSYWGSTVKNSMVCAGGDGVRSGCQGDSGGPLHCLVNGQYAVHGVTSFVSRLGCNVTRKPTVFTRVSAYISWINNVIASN

SMILES | Inhibitory activity to PPE (literature) [1] | Ki [2] [nM] | Ki [3] [nM] | kon [4] [M⁻¹ s⁻¹] | kon [5] [M⁻¹ s⁻¹] | Stability in human plasma [6]
CC(C)(C)C(=O)Oc1ccc(S(=O)(=O)Nc2ccccc2C(=O)NCC(=O)O)cc1 [sivelestat] | little inhibitory activity | – | – | – | – | –
CC[C@H](C)[C@@H]1NC(=O)[C@H](C)NC(=O)[C@@H]2CCCN2C(=O)[C@@H]2CSSC[C@H](NC(=O)[C@H](CO)NC(=O)[C@H](CC(N)=O)NC(=O)[C@H](CO)NC(=O)[C@H](Cc3ccc(O)cc3)NC(=O)[C@H](CCSC)NC(=O)[C@H](CCCNC(=N)N)NC(=O)CNC(=O)[C@H](Cc3ccccc3)NC(=O)[C@H](CCC(=O)O)NC(=O)[C@H](CC(=O)O)NC(=O)[C@H](Cc3ccccc3)NC(=O)[C@H](C(C)C)NC(=O)[C@@H]3CCCN3C(=O)[C@H](CCC(N)=O)NC(=O)[C@H](Cc3ccc(O)cc3)NC1=O)C(=O)N[C@@H](CCC(=O)O)C(=O)N[C@@H](CCSC)C(=O)N[C@@H](CCC(N)=O)C(=O)N[C@@H](CCCNC(=N)N)C(=O)N[C@@H](C)C(=O)N[C@@H](CCCNC(=N)N)C(=O)N[C@H](C(=O)N[C@@H](CC(C)C)C(=O)N[C@@H](CCCNC(=N)N)C(=O)NCC(=O)O)CSSC[C@H](N)C(=O)N1CCC[C@H]1C(=O)N[C@@H](CCC(N)=O)C(=O)N[C@@H](C(C)C)C(=O)N2 [ShSPI] (H-CPQVCPAIYQPVFDEFGRMYSNSCEMQRARCLRG-OH; disulfide 1-31, 5-24) | – | 12.6 ± 2 | 226 ± 20 | 45000 | 4500 | no significant degradation over 48 h
